By ED50 is commonly meant the midpoint of the dose-response relation.

Where a name gives a salt, the structure may show the parent alone.

The results in this text go back to EP0076669A1, “Novel 3-phenyl-1-indanamines, pharmaceutical compositions and methods of preparation” (KEFALAS A/S, priority 1981, dated 1983).

Assay [1] has as its system tetrabenazine induced ptosis. Briefly: Tetrabenazine ptosis antagonism. The format is in vivo. Particulars: Mus musculus, ip, 0.5 h; i.p., mice; tetrabenazine 40 mg/kg i.p. 30 min after test substance. The protocol:
For insoluble substances the doses 0, 1/8, 1/32 and 1/128 of "i.^p. LD50" are used. 3 mice are used for each dose level. Thirty minutes after administration of test substance, tetrabenazine, 40 mg/kg, is injected i.p. Ptosis is evaluated 30 minutes after administration of tetrabenazine, the following rating scale being used: 0 = normal eyes, 1=1/4 closed eyes, 2 = 1/2 closed eyes, 3 = 3/4 closed eyes and 4 = completely closed eyes. Ptosis is evaluated 30 seconds after tilting the cage 3 times. The tilting is carried out in such a way that the animals slide along the floor of the cage.
The results are recorded as % inhibition of ptotic score calculated on the basis of the score of the control group. If ptotic score for the control group is < 10 the test is rejected and another is performed. The registration can also be done as an on line procedure.

Another assay has as its system potentiation of 5-HTP. Briefly: 5-HTP potentiation (5-HTP syndrome). The format is in vivo. The settings on record: Mus musculus, ip, 0.5 h; i.p., mice; 5-HTP 100 mg/kg i.v. 30 min after test substance; read-out: 5-HTP potentation,ED50. The protocol:
The test substance is given i.p. or p.o. in the doses 10, 10, 2.5, 0.63 and 0 mg/kg. Three mice are used for each dose level. One of the groups on the highest dose is used as control of the compounds own effect. […] Thirty minutes after administration of test substance, 5-HTP, 100 mg/kg i.v. is given (injection time 5-10 sec.). After this 5-HTP dose the animals remain unaffected. If the animals have been pretreated with a substance, which inhibits the re-uptake of 5-HT, a 5-HTP syndrome will occur. This is characterized by the following symptoms: 1) excitation, 2) tremor, and 3) abduction of the hind limbs.
After the administration of 5-HTP the animals are observed for 15 minutes and each animal is given one point for each symptom present. Thus, the maximal score for a group consisting of 3 mice is 9.
The results are stated as fractions: 0/9, 1/9, 2/9 ..... 8/9, 9/9, where 0, 1, 2 ..... 8, 9 are the number of points per group after the dose in question.

In the case of `CN[C@@H]1C[C@@H](c2ccc(F)c(Cl)c2)c2ccccc21` (relative stereo) [Lu 19-085-c, trans-N-methyl-3-(3'-chloro-4'-fluorophenyl)-I-indanamine hydrochloride], the ED50 in assay [1] came to 51 µmol/kg; with potentiation of 5-HTP, 47 µmol/kg.

As for `CNC1CC(c2ccc(F)cc2)c2ccc(C)cc21` (centres unmarked) [Lu 19-091-c], the ED50 in assay [1] is more than 137 µmol/kg; with potentiation of 5-HTP, 55 µmol/kg.

For `CN[C@@H]1C[C@@H](c2ccc(Cl)c(Cl)c2)c2ccc(OC)cc21` (relative stereo) [Lu 20-015-o], the ED50 in assay [1] is 7 µmol/kg; in the assay with potentiation of 5-HTP, 14 µmol/kg. The corresponding values for `CN(C)[C@@H]1C[C@H](c2cccc(Cl)c2)c2ccccc21` (relative stereo) [Lu 19-116-c] are 85 µmol/kg and 78 µmol/kg.

Take `CN(C)C1CC(O)(c2ccc(F)c(Cl)c2)c2ccccc21` (centres unmarked) [Lu 19-114, N,N-dimethyl-3-(3-chloro-4-fluorophenyl)-3-hydroxy-1-indanamine]: the ED50 in assay [1] was determined as 14 µmol/kg; in the assay with potentiation of 5-HTP, 26 µmol/kg.

Take `Clc1ccc(C2CC(NCCc3ccccc3)c3ccccc32)cc1Cl` (centres unmarked) [Lu 19-079-o]: the ED50 (in assay [1]; in the assay on potentiation of 5-HTP) was more than 85 µmol/kg throughout.

As to `CN(C)[C@@H]1C[C@@H](c2ccc(Cl)c(Cl)c2)c2ccc(F)cc21` (relative stereo) [Lu 19-143-c], the ED50 in assay [1] is more than 111 µmol/kg; in the assay on potentiation of 5-HTP, 14 µmol/kg. For `CCN(CC)[C@@H]1C[C@@H](c2ccc(Cl)c(Cl)c2)c2ccccc21` (relative stereo) [Lu 18-187-c] the same measures were 52 µmol/kg and 19 µmol/kg. The corresponding values for `CN[C@@H]1C[C@@H](c2ccc(F)cc2)c2ccc(C)cc21` (relative stereo) [Lu 19-092-c] are 34 µmol/kg and 63 µmol/kg.

With `CNC1CC(c2ccc(F)cc2)c2ccc(F)cc21` (centres unmarked) [Lu 13-164-o], the ED50 was 22 µmol/kg in assay [1] and 57 µmol/kg with potentiation of 5-HTP. With `CNC1CC(c2ccc(Cl)c(Cl)c2)c2ccccc21` (single isomer, unassigned; (-)) [Lu 20-043-c, (-) trans N-methyl-3-(3,4-dichlorophenyl)-1-indanamine, hydrochloride], the ED50 in the assay with potentiation of 5-HTP stood at 16 µmol/kg. As for `CN[C@@H]1C[C@H](c2ccc(Cl)cc2Cl)c2ccccc21` (relative stereo) [Lu 19-113-c], the ED50 in assay [1] worked out at 98 µmol/kg; with potentiation of 5-HTP it was 71 µmol/kg. Take `CN[C@@H]1C[C@@H](c2ccc(Cl)c(Cl)c2)c2ccccc21` (relative stereo) [Lu 19-005-c, trans-N-methyl-3-(3',4'-dichlorophenyl)-I-indanamine]: in the assay on potentiation of 5-HTP, the ED50 turned out to be 6.7 µmol/kg. Take `CN(C)[C@@H]1C[C@@H](c2ccc(Cl)c(Cl)c2)c2ccc(O)cc21` (relative stereo) [Lu 20-031-b, trans N,N-dimethyl-3-(3,4-dichlorophenyl)-6-hydroxy-1-indanamine, hydrobromide]: the ED50 in assay [1] came to 97 µmol/kg; in the assay on potentiation of 5-HTP it was 18 µmol/kg. On to `Clc1ccc([C@@H]2C[C@@H](NCc3ccccc3)c3ccccc32)cc1Cl` (relative stereo) [Lu 19-071-c], for which the ED50 (in assay [1]; in the assay with potentiation of 5-HTP) was more than 25 µmol/kg in each case.

Turning to `COc1ccc2c(c1)[C@H](N(C)C)C[C@H]2c1ccc(Cl)c(Cl)c1` (relative stereo) [Lu 20-049-o], the ED50 was 5.9 µmol/kg in assay [1] and 37 µmol/kg in the assay with potentiation of 5-HTP.

Take `CN1Cc2c(N)cccc2C(c2ccccc2)C1` (centres unmarked) [Nomi-phensine, nomiphensine, reference compound]: the median effective dose (ED50) was 4.3 µmol/kg in assay [1] and more than 56 µmol/kg in the assay with potentiation of 5-HTP. For `CN(C)[C@@H]1C[C@@H](c2ccc(Br)cc2)c2ccccc21` (relative stereo) [Lu 19-056] the same measures were 10 µmol/kg and 8 µmol/kg. The corresponding values for `CN[C@@H]1C[C@H](c2ccccc2)c2ccccc21` (relative stereo) [Lu 19-094] are more than 154 µmol/kg and 211 µmol/kg. The corresponding values for `CN(C)[C@@H]1C[C@@H](c2ccc(Cl)cc2)c2ccccc21` (relative stereo) [Lu 19-121] are 66 µmol/kg and 18 µmol/kg. Turning to `CN[C@@H]1C[C@H](c2ccc(Cl)c(Cl)c2)c2ccc(O)cc21` (relative stereo) [Lu 20-030], the ED50 in assay [1] was 15 µmol/kg; in the assay with potentiation of 5-HTP it was 59 µmol/kg. Take `CCCN(CCC)[C@@H]1C[C@H](c2ccc(Cl)c(Cl)c2)c2ccccc21` (relative stereo) [Lu 19-043-c]: the median effective dose (ED50) (in assay [1]; in the assay on potentiation of 5-HTP) was more than 100 µmol/kg throughout. Turning to `CN[C@@H]1C[C@H](c2ccc(Cl)c(Cl)c2)c2ccc(F)cc21` (relative stereo) [Lu 19-137-c], the ED50 in assay [1] was found to be 15 µmol/kg; in the assay with potentiation of 5-HTP it was 34 µmol/kg. For `OCCNC1CC(c2ccc(Cl)c(Cl)c2)c2ccccc21` (centres unmarked) [Lu 19-073-c], the ED50 (in assay [1]; in the assay with potentiation of 5-HTP) was more than 111 µmol/kg throughout. As for `CN[C@@H]1C[C@H](c2ccc(F)cc2)c2ccccc21` (relative stereo) [Lu 19-108-c, cis N-methyl-3-(4'-fluorophenyl)-1-indanamine, hydrochloride], the ED50 in assay [1] was found to be 79 µmol/kg; in the assay on potentiation of 5-HTP it was 72 µmol/kg. The corresponding values for `CN(C)[C@@H]1C[C@@H](c2ccc(Cl)c(Cl)c2)c2ccccc21` (relative stereo) [Lu 18-118] are 83 µmol/kg and 5 µmol/kg. Regarding `CN(C)[C@@H]1C[C@H](c2ccc(Cl)cc2)c2ccccc21` (relative stereo) [Lu 19-124], the figures for the ED50 (in assay [1]; in the assay on potentiation of 5-HTP) were 43 µmol/kg and 109 µmol/kg, respectively. The corresponding values for `CN[C@@H]1C[C@@H](c2ccc(F)cc2)c2ccccc21` (relative stereo) [Lu 19-109-c] are 6.3 µmol/kg and more than 36 µmol/kg.

Regarding `CN[C@@H]1C[C@@H](c2ccc(Cl)cc2Cl)c2ccccc21` (relative stereo) [Lu 19-099-c], the ED50 in assay [1] was found to be 19 µmol/kg; with potentiation of 5-HTP it was 67 µmol/kg.

On to `CN(C)[C@@H]1C[C@@H](c2cccc(Cl)c2)c2ccccc21` (relative stereo) [Lu 19-115-c], for which the ED50 in assay [1] amounted to 10 µmol/kg; in the assay on potentiation of 5-HTP, 43 µmol/kg. For `CN[C@@H]1C[C@H](c2ccc(Cl)cc2)c2ccccc21` (relative stereo) [Lu 19-120-c] the same measures were more than 34 µmol/kg and 23 µmol/kg. Consider `CN(C)CCCC1(c2ccc(F)cc2)OCc2cc(C#N)ccc21` (centres unmarked) [Citalo-pram, reference compound], for which the values for the ED50 (in assay [1]; in the assay with potentiation of 5-HTP) were 20 µmol/kg and 3.3 µmol/kg, respectively.

Turning to `CN(C)C1CC(c2ccc(F)c(F)c2)c2ccccc21` (centres unmarked) [Lu 19-096-c], the figures for the ED50 (in assay [1]; with potentiation of 5-HTP) were 13 µmol/kg and 42 µmol/kg, respectively. For `CN(C)[C@@H]1C[C@@H](c2ccccc2)c2ccccc21` (relative stereo) [Lu 19-026-c, reference compound] the same measures were 17 µmol/kg and more than 35 µmol/kg. As to `CN(C)[C@@H]1C[C@@H](c2ccc(F)cc2)c2ccccc21` (relative stereo) [Lu 19-007-c], the figures for the ED50 (in assay [1]; in the assay with potentiation of 5-HTP) were 7.8 µmol/kg and 45 µmol/kg, respectively.

For `CN(C)[C@@H]1C[C@@H](c2ccc(F)cc2)c2ccc(C(F)(F)F)cc21` (relative stereo) [Lu 18-047-c], it took a dose of 166 µmol/kg to reach the 50% effect level in assay [1] (ED50).

For the molecule `CN[C@@H]1C[C@@H](c2ccc(F)c(F)c2)c2ccccc21` (relative stereo) [Lu 19-098-c], the 50% effective dose (ED50) in the assay with potentiation of 5-HTP stood at 22 µmol/kg. The molecule `CN[C@@H]1C[C@@H](c2ccc(Cl)c(Cl)c2)c2ccccc21` (single isomer, unassigned) [Lu 20-042-c, (+) trans N-methyl-3-(3,4-dichlorophenyl)-1-indanamine, hydrochloride] had an ED50 in assay [1] of 7.6 µmol/kg.

On to `CN[C@@H]1C[C@H](c2ccc(Cl)c(Cl)c2)c2ccc(OC)cc21` (relative stereo) [Lu 20-016-o], for which the ED50 in assay [1] was 14 µmol/kg; in the assay on potentiation of 5-HTP it was 3 µmol/kg. On to `CN[C@@H]1C[C@H](c2ccc(Cl)c(Cl)c2)c2ccccc21` (relative stereo) [Lu 19-006-c, cis-N-methyl-3-(3',4'-dichlorophenyl)-1-indanamine], for which it took a dose of 5.8 µmol/kg to reach the 50% effect level in assay [1] (ED50).

As for `CN(C)[C@@H]1C[C@@H](c2ccc(C#N)cc2)c2ccc(F)cc21` (relative stereo) [Lu 19-070-c], the results for the ED50 (in assay [1]; in the assay on potentiation of 5-HTP) were 45 µmol/kg and 25 µmol/kg, respectively. `Clc1ccc(C2CC(NCc3ccccc3)c3ccccc32)cc1Cl` (centres unmarked) [Lu 19-072-c]: the ED50 (in assay [1]; with potentiation of 5-HTP) was more than 99 µmol/kg each time.

For `CN[C@@H]1C[C@@H](c2ccc(Cl)c(Cl)c2)c2ccc(F)cc21` (relative stereo) [Lu 19-136-c], the ED50 was 33 µmol/kg in assay [1] and 27 µmol/kg in the assay with potentiation of 5-HTP. For `COc1ccc2c(c1)C(N(C)C)CC2c1ccc(Cl)c(Cl)c1` (centres unmarked) [Lu 20-050] the same measures were 119 µmol/kg and 26 µmol/kg. Consider `CN[C@@H]1C[C@@H](c2ccc(F)cc2)c2ccc(F)cc21` (relative stereo) [Lu 19-097-c], for which the median effective dose (ED50) in the assay with potentiation of 5-HTP came out at 94 µmol/kg.
